US20100305047A1, “CYCLOSPORIN DERIVATIVES FOR ENHANCING THE GROWTH OF HAIR” (ALLERGAN, INC., priority 2009, published 2010)
Starred links: 1 amine or outer side, 2 acyl side, 3 side chain; linkers in the order of their positions; H or OH if unused. Non-standard residues stand in square brackets, D forms with d. Residues, ends and D or L forms follow the SMILES beside them. ξ: configuration not given here. ξNMeBmt = C/C=C/C[C@@H](C)[C@@H](O)C(NC)C(=O)O; X1 = CN(C(SCCNC(=N)N)C(=O)[*:2])[*:1]; NMeL = CN[C@@H](CC(C)C)C(=O)O; dNMeL = CN[C@H](CC(C)C)C(=O)O; NMeV = CN[C@H](C(=O)O)C(C)C; ξNMeL = CNC(CC(C)C)C(=O)O; dAbu = CC[C@@H](N)C(=O)O

Test system: lashes and hair around the eyes of patients
Experiment: In vivo treatment: appearance of lashes and hair around the eyes of patients treated in only one eye
Parameters: species or system human
Conditions: glaucoma patients, one drop daily to one eye
Method: A study is initiated to systematically evaluate the appearance of lashes and hair around the eyes of patients who are administering 3-[(2-Guanidyl)-ethylthio]-cyclosporin A (the cyclosporine A derivative of Example A, above) in only one eye. The study involves 10 subjects, 5 male, 5 female, average age 70 years, (ranging from 50-94 years). All patients have glaucoma. Each subject is treated daily by the topical application of one drop of the composition of Example 3, below, to provide 3-[(2-Guanidyl)-ethylthio]-cyclosporin A at a dosage of 1.5 µg/ml/eye/day, to the region of one eye by instilling the drop onto the surface of the eye. The region of the fellow control eye is not treated with 3-[(2-Guanidyl)-ethylthio]-cyclosporin A and serves as a control. The mean duration of exposure to 3-[(2-Guanidyl)-ethylthio]-cyclosporin A prior to assessing the parameter of lash growth between the control and study eye is 129 days (range 90-254 days). Observations are made under high magnification at the slit lamp biomicroscope. Documentation of differences between the control and treatment areas is accomplished using a camera specially adapted for use with the slit lamp biomicroscope.

[1] = 1.5 µg/ml/eye/day, mean exposure 129 days, vs untreated fellow eye, slit lamp biomicroscope

Compound: C/C=C/C[C@@H](C)[C@@H](O)C1C(=O)N[C@H](CC)C(=O)N(C)C(SCCNC(=N)N)C(=O)N(C)[C@@H](CC(C)C)C(=O)N[C@H](C(C)C)C(=O)N(C)C(CC(C)C)C(=O)N[C@H](C)C(=O)N[C@@H](C)C(=O)N(C)[C@H](CC(C)C)C(=O)N(C)[C@H](CC(C)C)C(=O)N(C)[C@@H](C(C)C)C(=O)N1C (stereo partly shown) [3-[(2-Guanidyl)-ethylthio]-cyclosporin A] (cyclo(A[dNMeL][dNMeL][NMeV][ξNMeBmt][dAbu][X1][NMeL][dV][ξNMeL][dA]))
- Increased growth of vellus hair on lids (1.5 µg/ml/eye/day, mean exposure 129 days, vs untreated fellow eye, areas below and lateral to the lower lid): vellus hairs are increased in number, appear more robust and are much longer and thicker in treated than in control eyes
- Length of lashes [1]: Increased length of eyelashes is regularly observed
- Number of lashes [1]: Increased numbers of lashes are observed in the treated eye of each patient
- Perpendicular angulation of hairs (lash-like hairs above the lash line and in the medial and lateral canthal areas): the hairs are much longer, thicker and heavier. They also leave the surface of the skin at a more acute angle
